Assay results reported in patent publication US20260317324A1, “BIFUNCTIONAL COMPOUNDS FOR DEGRADING BRAF VIA UBIQUITIN PROTEOSOME PATHWAY” (Nurix Therapeutics, Inc., priority 2023, published 2026).

Key:
Format in all cases: cell-based
BRAF V600E = biological target: T1, BRAF V600E (Homo sapiens, UniProt P15056, V600E); test: BRAF HiBiT degradation assay, C-terminal HiBiT-tagged BRAF V600E A375 cells (clone 1F10), Nano-Glo HiBiT Lytic assay; details: for Dmax: A-375
T1 construct: endogenous C-terminal HiBiT fusion tag on BRAF V600E allele; endogenous in cells; host or cells: A375 clone 1F10 (CRISPR-Cas9 knock-in of the HiBiT tag; parental A375 from ATCC)
T1 sequence (P15056 whole entry V600E, the tested form may be a part): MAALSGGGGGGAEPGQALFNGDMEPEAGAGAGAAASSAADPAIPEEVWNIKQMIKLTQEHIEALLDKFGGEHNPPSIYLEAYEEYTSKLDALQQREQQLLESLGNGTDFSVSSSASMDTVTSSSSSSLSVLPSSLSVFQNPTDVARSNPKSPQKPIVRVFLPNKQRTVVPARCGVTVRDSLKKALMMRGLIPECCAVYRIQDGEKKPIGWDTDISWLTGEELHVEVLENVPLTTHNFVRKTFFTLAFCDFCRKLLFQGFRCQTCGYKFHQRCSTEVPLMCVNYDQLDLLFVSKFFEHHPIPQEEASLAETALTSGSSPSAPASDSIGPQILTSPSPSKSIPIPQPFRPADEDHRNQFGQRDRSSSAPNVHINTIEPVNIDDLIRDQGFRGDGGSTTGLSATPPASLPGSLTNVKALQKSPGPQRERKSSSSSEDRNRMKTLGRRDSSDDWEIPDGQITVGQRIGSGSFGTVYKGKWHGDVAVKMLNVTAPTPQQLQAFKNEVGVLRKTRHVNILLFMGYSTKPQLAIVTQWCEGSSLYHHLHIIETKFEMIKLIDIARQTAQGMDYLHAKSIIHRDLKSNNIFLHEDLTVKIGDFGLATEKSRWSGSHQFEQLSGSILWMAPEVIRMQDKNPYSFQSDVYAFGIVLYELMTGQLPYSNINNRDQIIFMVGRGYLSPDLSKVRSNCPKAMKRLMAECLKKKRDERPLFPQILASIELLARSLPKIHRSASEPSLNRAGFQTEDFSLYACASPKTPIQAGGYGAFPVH
How it was run: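 Luminescence read-out: Nano-Glo HiBiT lytic reagent with LgBiT, 10 min at room temperature. Signal normalised to DMSO-treated tagged cells, with wildtype A375 as background. Cells are endogenously tagged BRAF V600E A375 clone 1F10. Compounds were tested from 1 μM to 0.01 nM; Dmax is observed % degraded at maximal effect.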

BRAF G466V = biological target: T2, BRAF G466V (Homo sapiens, UniProt P15056, G466V); test: BRAF HiBiT degradation assay, C-terminal HiBiT-tagged BRAF G466V overexpressed in HCT-116 BRAF−/− cells (clone 8), Nano-Glo HiBiT Lytic assay
T2 construct: Horizon Discovery (HCT-116 BRAF−/− cells); host or cells: HCT-116 BRAF−/− cells, clone 8, lentiviral transduction
T2 sequence (P15056 whole entry G466V): as the sequence (P15056 whole entry V600E, the tested form may be a part) above, with G466V, E600V counted along it
How it was run: (§1)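 Cells 3,000/well, 24 h at 37 °C; cpds 1 μM–0.01 nM, 11-pt half-log, duplicate, 0.2% DMSO. Readout: HiBiT lytic luminescence, 10 min at RT. Normalized to DMSO-treated tagged cells, with DMSO-treated wild-type HCT-116 as background. DC50 = fitted concentration at Y=50; Obs. Dmax = % degraded at maximal effect.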

BRAF G469A = biological target: T3, BRAF G469A (Homo sapiens, UniProt P15056, G469A); test: BRAF HiBiT degradation assay, C-terminal HiBiT-tagged BRAF G469A overexpressed in HCT-116 BRAF−/− cells (clone 34), Nano-Glo HiBiT Lytic assay
T3 construct: Horizon Discovery (HCT-116 BRAF−/− cells); host or cells: HCT-116 BRAF−/− cells, clone 34, lentiviral transduction
T3 sequence (P15056 whole entry G469A): as the sequence (P15056 whole entry V600E, the tested form may be a part) above, with G469A, E600V counted along it
How it was run: as §1

BRAF D594G = biological target: T4, BRAF D594G (Homo sapiens, UniProt P15056, D594G); test: BRAF HiBiT degradation assay, C-terminal HiBiT-tagged BRAF D594G overexpressed in HCT-116 BRAF−/− cells (clone 63), Nano-Glo HiBiT Lytic assay
T4 construct: Horizon Discovery (HCT-116 BRAF−/− cells); host or cells: HCT-116 BRAF−/− cells, clone 63, lentiviral transduction
T4 sequence (P15056 whole entry D594G): as the sequence (P15056 whole entry V600E, the tested form may be a part) above, with D594G, E600V counted along it
How it was run: as §1

[1] = A375 (BRAF V600E, Class 1), DC50 at 50% degradation
[2] = A375 (BRAF V600E, Class 1), observed Dmax, % protein degraded relative to DMSO control
[3] = BRAF G466V (Class 3), HCT-116 BRAF−/− cells, DC50 at 50% degradation
[4] = BRAF G466V (Class 3), HCT-116 BRAF−/− cells, observed Dmax relative to DMSO control
[5] = BRAF G469A (Class 2), HCT-116 BRAF−/− cells, DC50 at 50% degradation
[6] = BRAF G469A (Class 2), HCT-116 BRAF−/− cells, observed Dmax relative to DMSO control
[7] = BRAF D594G (Class 3), HCT-116 BRAF−/− cells, DC50 at 50% degradation
[8] = BRAF D594G (Class 3), HCT-116 BRAF−/− cells, observed Dmax relative to DMSO control
[9] = A375 (BRAF V600E), DC50 at 50%: fitted conc. at Y=50
[10] = A375 (BRAF V600E), percentage protein degraded at maximal compound effect relative to DMSO
[11] = BRAF G466V, DC50 at 50%: fitted conc. at Y=50
[12] = HCT-116, BRAF G466V, percentage protein degraded at maximal compound effect relative to DMSO
[13] = Class 2, BRAF G469A, DC50 at 50%: fitted conc. at Y=50
[14] = HCT-116, Class 2, BRAF G469A, percentage protein degraded at maximal compound effect relative to DMSO
[15] = BRAF D594G, DC50 at 50%: fitted conc. at Y=50
[16] = HCT-116, BRAF D594G, percentage protein degraded at maximal compound effect relative to DMSO

| DC50 (BRAF V600E; [1]) [µM] | Dmax (BRAF V600E; [2]) [%] | DC50 (BRAF G466V; [3]) [µM] | Dmax (BRAF G466V; [4]) [%] | DC50 (BRAF G469A; [5]) [µM] | Dmax (BRAF G469A; [6]) [%] | DC50 (BRAF D594G; [7]) [µM] | Dmax (BRAF D594G; [8]) [%] | DC50 (BRAF V600E; [9]) [µM] | Dmax (BRAF V600E; [10]) [%] | DC50 (BRAF G466V; [11]) [µM] | Dmax (BRAF G466V; [12]) [%] | DC50 (BRAF G469A; [13]) [µM] | Dmax (BRAF G469A; [14]) [%] | DC50 (BRAF D594G; [15]) [µM] | Dmax (BRAF D594G; [16]) [%] | Structure (SMILES) |
| --- | --- | --- | --- | --- | --- | --- | --- | --- | --- | --- | --- | --- | --- | --- | --- | --- |
| < 0.01 | > 70 | < 0.01 | > 70 | 0.01 to 0.05 | > 70 | < 0.01 | > 70 | – | – | – | – | – | – | – | – | O=C1CCC(c2ccc(N3CCC(CN4CCN(c5ccc(-n6cc(-c7cc(Cl)cc(NS(=O)(=O)C8CCCC8)c7F)c(-c7ccncc7)n6)cc5)CC4)CC3)nc2)C(=O)N1 (racemic) [Compound 373, Rac-N-{5-chloro-3-[1-(4-{4-[(1-{5-[(3R)-2,6-dioxopiperidin-3-yl]pyridin-2-yl}piperidin-4-yl)methyl]piperazin-1-yl}phenyl)-3-(pyridin-4-yl)-1H-pyrazol-4-yl]-2-fluorophenyl}cyclopentanesulfonamide] |
| < 0.01 | > 70 | < 0.01 | > 70 | 0.01 to 0.05 | 30 to 70 | < 0.01 | > 70 | – | – | – | – | – | – | – | – | CCN(C)S(=O)(=O)Nc1cc(F)cc(-c2cn(-c3ccc(N4CCN(CC5CCN(c6ccc(C7CCC(=O)NC7=O)cn6)CC5)CC4)cc3)nc2-c2ccncc2)c1F (racemic) [Compound 376, Rac-(3R)-3-(6-{4-[(4-{4-[4-(3-{[ethyl(methyl)sulfamoyl]amino}-2,5-difluorophenyl)-3-(pyridin-4-yl)-1H-pyrazol-1-yl]phenyl}piperazin-1-yl)methyl]piperidin-1-yl}pyridin-3-yl)piperidine-2,6-dione] |
| 0.01 to 0.05 | > 70 | 0.01 to 0.05 | 30 to 70 | 0.01 to 0.05 | 30 to 70 | < 0.01 | 30 to 70 | – | – | – | – | – | – | – | – | CCCS(=O)(=O)Nc1cccc(-c2cn(-c3ccc(N4CCC(CN5CCN(c6ccc(C7CCC(=O)NC7=O)cc6)CC5)CC4)cc3)nc2-c2ccncc2)c1F (racemic) [Compound 381, Rac-(R)—N-(3-(1-(4-(4-((4-(4-(2,6-dioxopiperidin-3-yl)phenyl)piperazin-1-yl)methyl)piperidin-1-yl)phenyl)-3-(pyridin-4-yl)-1H-pyrazol-4-yl)-2-fluorophenyl)propane-1-sulfonamide] |
| 0.01 to 0.05 | > 70 | < 0.01 | > 70 | 0.05 to 0.5 | 30 to 70 | < 0.01 | 30 to 70 | – | – | – | – | – | – | – | – | O=C1CCC(c2ccc(N3CCC(CN4CCN(c5ccc(-n6cc(-c7cc(Cl)cc(NS(=O)(=O)N8CCCC8)c7F)c(-c7ccncc7)n6)cc5)CC4)CC3)c(F)c2F)C(=O)N1 (racemic) [Compound 385, Rac-N-{5-chloro-3-[1-(4-{4-[(1-{4-[(3R)-2,6-dioxopiperidin-3-yl]-2,3-difluorophenyl}piperidin-4-yl)methyl]piperazin-1-yl}phenyl)-3-(pyridin-4-yl)-1H-pyrazol-4-yl]-2-fluorophenyl}pyrrolidine-1-sulfonamide] |
| 0.01 to 0.05 | > 70 | 0.01 to 0.05 | > 70 | 0.05 to 0.5 | 30 to 70 | 0.01 to 0.05 | 30 to 70 | – | – | – | – | – | – | – | – | O=C1CCC(c2cc(F)c(N3CCC(CN4CCN(c5ccc(-n6cc(-c7cc(Cl)cc(NS(=O)(=O)N8CCCC8)c7F)c(-c7ccncc7)n6)cc5)CC4)CC3)cc2F)C(=O)N1 (racemic) [Compound 386, Rac-N-{5-chloro-3-[1-(4-{4-[(1-{4-[(3R)-2,6-dioxopiperidin-3-yl]-2,5-difluorophenyl}piperidin-4-yl)methyl]piperazin-1-yl}phenyl)-3-(pyridin-4-yl)-1H-pyrazol-4-yl]-2-fluorophenyl}pyrrolidine-1-sulfonamide] |
| 0.01 to 0.05 | > 70 | < 0.01 | > 70 | 0.01 to 0.05 | 30 to 70 | < 0.01 | 30 to 70 | – | – | – | – | – | – | – | – | O=C1CCC(c2c(F)cc(N3CCC(CN4CCN(c5ccc(-n6cc(-c7cc(Cl)cc(NS(=O)(=O)N8CCCC8)c7F)c(-c7ccncc7)n6)cc5)CC4)CC3)cc2F)C(=O)N1 (racemic) [Compound 387, Rac-N-{5-chloro-3-[1-(4-{4-[(1-{4-[(3R)-2,6-dioxopiperidin-3-yl]-3,5-difluorophenyl}piperidin-4-yl)methyl]piperazin-1-yl}phenyl)-3-(pyridin-4-yl)-1H-pyrazol-4-yl]-2-fluorophenyl}pyrrolidine-1-sulfonamide] |
| – | – | – | – | – | – | – | – | 0.05 to 0.5 | > 70 | 0.01 to 0.05 | 30 to 70 | 0.01 to 0.05 | 30 to 70 | 0.01 to 0.05 | 30 to 70 | CCCS(=O)(=O)Nc1cccc(-c2cn(-c3ccc(N4CCN(CC5CCN(c6ccc([C@H]7CCC(=O)NC7=O)cn6)CC5)CC4)cc3)nc2-c2ccncc2)c1F [Compound 2, N-{3-[1-(4-{4-[(1-{5-[(3R)-2,6-dioxopiperidin-3-yl]pyridin-2-yl}piperidin-4-yl)methyl]piperazin-1-yl}phenyl)-3-(pyridin-4-yl)-1H-pyrazol-4-yl]-2-fluorophenyl}propane-1-sulfonamide] |
| – | – | – | – | – | – | – | – | 0.01 to 0.05 | > 70 | 0.01 to 0.05 | 30 to 70 | > 0.5 | < 30 | > 0.5 | 30 to 70 | CCCS(=O)(=O)Nc1cccc(-c2cn(-c3ccc(N4CCN(CC5CCN(c6ccc([C@@H]7CCC(=O)NC7=O)cc6)CC5)CC4)nc3)nc2-c2ccncc2)c1F [Compound 4, N-{3-[1-(6-{4-[(1-{4-[(3S)-2,6-dioxopiperidin-3-yl]phenyl}piperidin-4-yl)methyl]piperazin-1-yl}pyridin-3-yl)-3-(pyridin-4-yl)-1H-pyrazol-4-yl]-2-fluorophenyl}propane-1-sulfonamide] |
| – | – | – | – | – | – | – | – | 0.01 to 0.05 | > 70 | 0.01 to 0.05 | 30 to 70 | > 0.5 | 30 to 70 | > 0.5 | 30 to 70 | CCCS(=O)(=O)Nc1cccc(-c2cn(-c3ccc(N4CCN(CC5CCN(c6ccc([C@@H]7CCC(=O)NC7=O)cc6)CC5)CC4)cc3)nc2-c2ccncc2)c1F [Compound 10, N-{3-[1-(4-{4-[(1-{4-[(3S)-2,6-dioxopiperidin-3-yl]phenyl}piperidin-4-yl)methyl]piperazin-1-yl}phenyl)-3-(pyridin-4-yl)-1H-pyrazol-4-yl]-2-fluorophenyl}propane-1-sulfonamide] |
| – | – | – | – | – | – | – | – | 0.01 to 0.05 | > 70 | 0.01 to 0.05 | 30 to 70 | > 0.5 | < 30 | > 0.5 | 30 to 70 | CCCS(=O)(=O)Nc1cccc(-c2cn(-c3ccc(C4CCN(CC5CCN(c6ccc([C@@H]7CCC(=O)NC7=O)cc6)CC5)CC4)cc3)nc2-c2ccncc2)c1F [Compound 15, N-{3-[1-(4-{1-[(1-{4-[(3S)-2,6-dioxopiperidin-3-yl]phenyl}piperidin-4-yl)methyl]piperidin-4-yl}phenyl)-3-(pyridin-4-yl)-1H-pyrazol-4-yl]-2-fluorophenyl}propane-1-sulfonamide] |
| – | – | – | – | – | – | – | – | 0.01 to 0.05 | > 70 | 0.01 to 0.05 | > 70 | 0.05 to 0.5 | 30 to 70 | < 0.01 | 30 to 70 | CCCS(=O)(=O)Nc1cccc(-c2cn(-c3ccc(N4CCN(CC5CCN(c6ccc([C@H]7CCC(=O)NC7=O)cc6)CC5)CC4)cc3)nc2-c2ccncc2)c1F [Compound 16, N-{3-[1-(4-{4-[(1-{4-[(3R)-2,6-dioxopiperidin-3-yl]phenyl}piperidin-4-yl)methyl]piperazin-1-yl}phenyl)-3-(pyridin-4-yl)-1H-pyrazol-4-yl]-2-fluorophenyl}propane-1-sulfonamide] |
